Results from patent US20260209193A1, “NOVEL INHIBITORS OF DNA DAMAGE RESPONSES FOR CANCER THERAPY” (The Regents of the University of California, priority 2022, published 2026).

Assays:
Assay type in all cases: cell-based
[1] = target: T1, ATR (Homo sapiens, UniProt Q13535); test: ATR-mediated signaling: phosphorylation of Rad17 Ser 645 and CHK1 Ser 345 in cells; conditions: for ATR inhibition potency relative to JC099 (OLA- or UV-induced phosphorylation of Rad17 and CHK1): compared to JC099; for Olaparib induced phosphorylation of Rad17 at Ser 645 and CHK1 at Ser 345: 1 μM and 2 μM, PC3 cells
T1 construct: endogenous in cells; host or cells: PC3, C4-2B/MR, SUM149PT-BRCA1rev, UWB1.289+BRCA1, MDA-MB-231
Method: PARP inhibitor-resistant cells are increasingly dependent on ATR for survival, and ATR inhibition disrupts restored HR and fork protection pathways in PARP inhibitor resistant BRCA-deficient cancer cells. For ATR kinase in vitro assays, ATR was immunoprecipitated with 3 μg of anti-ATR antibody (Bethyl Laboratories, A300-137A) from 1 mg of cell lysate. […] The IC50 was determined by the enzyme profiling service of Eurofins Cerep (France). […] The phosphorylation of CHK1 at Ser 345 sites was used as a bio-marker of ATR-mediated signaling pathway. The phosphorylation of Rad17 at Ser 645, which is a substrate of ATR, was also examined.
ATR inhibition was assessed in C4-2B/MR cells. Considering ATM is a homologous protein of ATR, we also detected the effect of JC046 analogs on the phosphorylation of KAP1 at Ser 824 and CHK2 at Thr 68 sites, which were used as markers of ATM signaling pathway.

[2] = system: PC3 and SUM149PT-BRCA1mut cells; test: CCK8 cell killing screen of JC099 analogs
From the text: Structure optimization represents a critical step towards identifying candidate compounds for preclinical and clinical development and contributes to structure-function analysis. […] Cell killing potency was detected by a CCK8 assay in prostate and breast cancer cells. […]
The cell killing potency was detected by a CCK8 assay in prostate and breast cancer cells.

[3] = target: T2, PARP1 (Homo sapiens, UniProt P09874); test: PARP1 trapping, chromatin fractionation (chromatin-bound fraction); conditions: PC3 cells; for PARP1 trapped on DNA lesions: 0.3 μM
T2 construct: endogenous in cells; host or cells: PC3
Method in brief: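 PARP1 trapping was measured as PARP1 in the chromatin-bound fraction across six lines: SUM149PT-BRCA1mut/BRCA1rev (breast), UWB1.289 BRCA1-null and BRCA1-restored (ovarian), HR-deficient C4-2B/MR (Rad51 mutant) and HR-proficient PC3 (prostate).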

T1 sequence (Q13535 whole entry): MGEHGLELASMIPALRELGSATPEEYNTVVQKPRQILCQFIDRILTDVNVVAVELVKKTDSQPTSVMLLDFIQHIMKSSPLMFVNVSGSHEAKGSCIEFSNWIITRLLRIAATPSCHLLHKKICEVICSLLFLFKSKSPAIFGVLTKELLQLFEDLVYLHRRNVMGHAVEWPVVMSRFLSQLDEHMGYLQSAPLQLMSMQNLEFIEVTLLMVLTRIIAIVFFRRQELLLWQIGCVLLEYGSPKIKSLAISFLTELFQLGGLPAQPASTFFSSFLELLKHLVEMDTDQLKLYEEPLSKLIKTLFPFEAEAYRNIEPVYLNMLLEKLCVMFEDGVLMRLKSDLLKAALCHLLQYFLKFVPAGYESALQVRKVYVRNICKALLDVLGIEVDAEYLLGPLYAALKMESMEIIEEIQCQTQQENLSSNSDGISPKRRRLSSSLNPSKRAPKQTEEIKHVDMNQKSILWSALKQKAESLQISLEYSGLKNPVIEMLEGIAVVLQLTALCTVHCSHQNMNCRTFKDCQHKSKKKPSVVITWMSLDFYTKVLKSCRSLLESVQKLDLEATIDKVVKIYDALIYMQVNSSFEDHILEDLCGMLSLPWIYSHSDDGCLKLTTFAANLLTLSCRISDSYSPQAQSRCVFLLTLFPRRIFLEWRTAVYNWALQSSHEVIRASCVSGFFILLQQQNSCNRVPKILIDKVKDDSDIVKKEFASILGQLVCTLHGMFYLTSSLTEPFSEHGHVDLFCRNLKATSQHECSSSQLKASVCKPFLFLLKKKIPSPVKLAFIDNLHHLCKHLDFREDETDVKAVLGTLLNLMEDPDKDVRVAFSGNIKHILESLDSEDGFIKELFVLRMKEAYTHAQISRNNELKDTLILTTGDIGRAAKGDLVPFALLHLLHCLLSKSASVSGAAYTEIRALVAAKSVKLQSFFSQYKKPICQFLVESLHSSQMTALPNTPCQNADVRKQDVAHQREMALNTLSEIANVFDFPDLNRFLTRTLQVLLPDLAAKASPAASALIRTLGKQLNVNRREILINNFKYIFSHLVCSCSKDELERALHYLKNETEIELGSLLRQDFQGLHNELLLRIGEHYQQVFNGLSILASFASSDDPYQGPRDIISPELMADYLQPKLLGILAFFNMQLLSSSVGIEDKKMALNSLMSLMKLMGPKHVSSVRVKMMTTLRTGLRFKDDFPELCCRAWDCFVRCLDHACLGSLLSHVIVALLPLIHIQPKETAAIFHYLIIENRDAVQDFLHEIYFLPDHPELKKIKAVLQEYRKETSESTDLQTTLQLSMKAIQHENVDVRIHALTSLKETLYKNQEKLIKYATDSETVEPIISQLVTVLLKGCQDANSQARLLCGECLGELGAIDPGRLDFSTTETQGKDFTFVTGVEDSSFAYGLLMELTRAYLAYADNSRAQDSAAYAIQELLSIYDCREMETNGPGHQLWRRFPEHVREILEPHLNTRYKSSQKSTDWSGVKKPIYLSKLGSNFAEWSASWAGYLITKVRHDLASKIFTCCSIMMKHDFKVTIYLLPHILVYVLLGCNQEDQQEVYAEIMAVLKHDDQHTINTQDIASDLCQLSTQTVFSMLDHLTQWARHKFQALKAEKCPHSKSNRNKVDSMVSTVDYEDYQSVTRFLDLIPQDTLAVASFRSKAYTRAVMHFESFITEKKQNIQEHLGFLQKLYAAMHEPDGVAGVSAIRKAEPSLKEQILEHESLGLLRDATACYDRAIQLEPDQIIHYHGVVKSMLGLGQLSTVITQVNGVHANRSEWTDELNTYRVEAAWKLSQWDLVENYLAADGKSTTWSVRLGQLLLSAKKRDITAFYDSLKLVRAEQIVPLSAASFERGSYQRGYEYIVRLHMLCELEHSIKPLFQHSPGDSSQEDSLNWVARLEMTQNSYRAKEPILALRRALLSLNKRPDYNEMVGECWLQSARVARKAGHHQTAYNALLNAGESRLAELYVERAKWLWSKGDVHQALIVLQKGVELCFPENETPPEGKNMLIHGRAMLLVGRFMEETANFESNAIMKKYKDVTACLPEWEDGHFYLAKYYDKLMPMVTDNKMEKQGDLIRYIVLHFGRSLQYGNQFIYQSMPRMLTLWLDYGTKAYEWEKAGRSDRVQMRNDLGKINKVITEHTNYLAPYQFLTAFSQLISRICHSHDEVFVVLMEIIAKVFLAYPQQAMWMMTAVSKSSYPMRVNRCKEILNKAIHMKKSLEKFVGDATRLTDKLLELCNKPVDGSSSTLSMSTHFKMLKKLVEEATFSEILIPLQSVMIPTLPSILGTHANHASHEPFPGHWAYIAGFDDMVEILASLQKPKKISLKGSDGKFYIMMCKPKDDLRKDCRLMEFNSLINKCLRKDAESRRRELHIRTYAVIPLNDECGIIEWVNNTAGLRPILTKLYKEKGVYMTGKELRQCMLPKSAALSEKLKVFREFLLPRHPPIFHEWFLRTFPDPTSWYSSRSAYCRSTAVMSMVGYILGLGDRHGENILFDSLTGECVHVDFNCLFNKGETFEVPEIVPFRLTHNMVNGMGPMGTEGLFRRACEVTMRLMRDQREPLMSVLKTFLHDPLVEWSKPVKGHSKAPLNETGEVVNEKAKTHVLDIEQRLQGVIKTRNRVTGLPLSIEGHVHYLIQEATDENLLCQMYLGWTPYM
T1 sequence (Q8WXE1 whole entry partner): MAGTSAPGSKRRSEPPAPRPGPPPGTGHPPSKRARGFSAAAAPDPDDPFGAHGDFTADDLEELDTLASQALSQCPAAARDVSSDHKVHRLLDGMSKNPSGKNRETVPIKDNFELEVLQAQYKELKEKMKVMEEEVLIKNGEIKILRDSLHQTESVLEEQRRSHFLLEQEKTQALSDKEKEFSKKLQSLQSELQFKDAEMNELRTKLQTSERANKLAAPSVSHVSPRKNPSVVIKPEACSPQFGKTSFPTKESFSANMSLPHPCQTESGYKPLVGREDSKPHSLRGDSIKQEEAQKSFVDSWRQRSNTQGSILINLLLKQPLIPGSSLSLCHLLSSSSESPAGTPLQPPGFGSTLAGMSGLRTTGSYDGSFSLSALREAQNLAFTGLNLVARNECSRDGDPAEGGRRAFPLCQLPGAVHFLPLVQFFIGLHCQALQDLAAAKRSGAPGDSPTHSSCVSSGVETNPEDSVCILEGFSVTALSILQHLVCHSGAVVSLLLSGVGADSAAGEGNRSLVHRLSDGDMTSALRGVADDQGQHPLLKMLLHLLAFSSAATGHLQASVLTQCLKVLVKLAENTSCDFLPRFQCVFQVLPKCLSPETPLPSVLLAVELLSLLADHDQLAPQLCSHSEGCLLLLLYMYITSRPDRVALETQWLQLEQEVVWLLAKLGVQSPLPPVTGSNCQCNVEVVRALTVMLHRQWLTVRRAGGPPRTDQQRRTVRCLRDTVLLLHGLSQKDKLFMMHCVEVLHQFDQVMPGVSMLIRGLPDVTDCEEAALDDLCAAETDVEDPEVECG
T2 sequence (P09874 whole entry, species assumed): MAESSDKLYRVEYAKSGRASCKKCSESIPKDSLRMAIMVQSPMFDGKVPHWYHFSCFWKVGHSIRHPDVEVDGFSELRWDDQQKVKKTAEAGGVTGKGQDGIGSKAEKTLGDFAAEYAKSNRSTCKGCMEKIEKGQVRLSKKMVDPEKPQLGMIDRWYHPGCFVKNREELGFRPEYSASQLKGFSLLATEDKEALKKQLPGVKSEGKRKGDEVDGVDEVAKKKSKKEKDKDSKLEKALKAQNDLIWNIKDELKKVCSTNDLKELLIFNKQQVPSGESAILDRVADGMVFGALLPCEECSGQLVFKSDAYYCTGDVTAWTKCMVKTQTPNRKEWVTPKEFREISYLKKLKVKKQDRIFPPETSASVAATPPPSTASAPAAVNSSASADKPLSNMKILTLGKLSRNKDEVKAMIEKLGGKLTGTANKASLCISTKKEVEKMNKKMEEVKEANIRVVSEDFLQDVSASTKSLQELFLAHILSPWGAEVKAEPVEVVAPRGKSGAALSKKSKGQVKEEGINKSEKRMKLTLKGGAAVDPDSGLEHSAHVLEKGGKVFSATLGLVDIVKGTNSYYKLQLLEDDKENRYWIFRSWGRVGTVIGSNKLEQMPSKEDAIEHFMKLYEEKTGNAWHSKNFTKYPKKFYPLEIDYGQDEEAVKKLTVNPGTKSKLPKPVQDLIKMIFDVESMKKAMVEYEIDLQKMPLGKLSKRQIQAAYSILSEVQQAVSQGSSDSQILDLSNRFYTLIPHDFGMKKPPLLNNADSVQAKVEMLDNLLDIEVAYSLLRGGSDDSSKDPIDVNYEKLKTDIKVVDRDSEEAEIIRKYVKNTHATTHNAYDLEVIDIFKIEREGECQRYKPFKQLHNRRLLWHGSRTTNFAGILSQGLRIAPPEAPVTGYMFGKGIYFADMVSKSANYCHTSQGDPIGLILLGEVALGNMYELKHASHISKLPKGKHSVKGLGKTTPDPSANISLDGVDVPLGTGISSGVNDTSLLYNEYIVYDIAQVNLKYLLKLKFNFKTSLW

**Q.** For `COCCN(CCOc1ccccc1)CCOc1ccc(C(=O)NC2C/C(=C\c3ccc(F)c(F)c3)C(=O)/C(=C/c3ccc(F)c(F)c3)C2)cc1` (stereo not drawn) [JCS108, N-(3,5-Bis((E)-3,4-difluorobenzylidene)-4-oxocyclohexyl)-4-(2-((2-methoxyethyl)(2-phenoxyethyl)amino)ethoxy)benzamide], which “ATR inhibition potency relative to JC099 (OLA- or UV-induced phosphorylation of Rad17 and CHK1)” value (“ATR inhibition potency relative to JC099” below) [1] is on record?
**A.** The value was “less ATR inhibition potencies”.

**Q.** And the “cell killing potency relative to JC099” value [2]?
**A.** Its value is “higher cell killing potency than JC099”.

**Q.** And the “PARP1-trapping potency relative to JC099 (PARP1 in the chromatin-bound fraction)” value [3]?
**A.** Its value is “higher potency in PARP1-trapping”.

**Q.** What does the source list for `CCN1CCC[C@H]1CNc1ccc(C(=O)NC2C/C(=C\c3cc(F)c(F)cc3F)C(=O)/C(=C/c3cc(F)c(F)cc3F)C2)cc1` (stereo partly drawn) [JCS154, 4-((((S)-1-Ethylpyrrolidin-2-yl)methyl)amino)-N-(4-oxo-3,5-bis((E)-2,4,5-trifluorobenzylidene)-cyclohexyl)benzamide]?
**A.** ATR inhibition potency relative to JC099 (OLA- or UV-induced phosphorylation of Rad17 and CHK1) [1]: their potencies were close to JC099; cell killing potency relative to JC099 [2]: moderate potency of cell killing, whereas less than JC099

**Q.** Which “cell killing potency relative to JC099” value [2] does the source give for `O=C(CN1CCCC1)Nc1ccc(C(=O)NC2C/C(=C\c3ccc(F)c(F)c3)C(=O)/C(=C/c3ccc(F)c(F)c3)C2)cc1` (stereo not drawn) [JCS046, N-(3,5-bis((E)-3,4-difluorobenzylidene)-4-oxocyclohexyl)-4-(2-(pyrrolidin-1-yl)acetamido)benzamide] here?
**A.** The value was “higher cell killing potency than JC099”.

**Q.** What about the “PARP1 trapped on DNA lesions” value [3] of the same molecule?
**A.** The value was “trapped”.

**Q.** `CN1CCN(c2ccc(C(=O)NC3C/C(=C\c4ccc(F)c(F)c4)C(=O)/C(=C/c4ccc(F)c(F)c4)C3)cc2)CC1` (stereo not drawn) [JCS071, N-(3,5-Bis((E)-3,4-difluorobenzylidene)-4-oxocyclohexyl)-4-(4-methylpiperazin-1-yl)benzamide] was tested. Which “cell killing potency relative to JC099” value [2] did it give?
**A.** The value was “higher cell killing potency than JC099”.

**Q.** For `CN1CCC[C@H]1CNc1ncc(C(=O)NC2C/C(=C\c3ccc(F)c(F)c3)C(=O)/C(=C/c3ccc(F)c(F)c3)C2)cn1` (stereo partly drawn) [JCS161, N-(3,5-Bis((E)-3,4-difluorobenzylidene)-4-oxocyclohexyl)-2-((((S)-1-methylpyrrolidin-2-yl)methyl)-amino)pyrimidine-5-carboxamide], which “cell killing potency relative to JC099” value [2] is on record?
**A.** The value was “higher cell killing potency than JC099”.

**Q.** Which results are given for `CCN(CC)CCOc1ccc(C(=O)NC2C/C(=C\c3cc(F)c(F)cc3F)C(=O)/C(=C/c3cc(F)c(F)cc3F)C2)cc1` (stereo not drawn) [JCS156, 4-(2-(Diethylamino)ethoxy)-N-(4-oxo-3,5-bis((E)-2,4,5-trifluorobenzylidene)cyclohexyl)benzamide]?
**A.** ATR inhibition potency relative to JC099 (OLA- or UV-induced phosphorylation of Rad17 and CHK1) [1]: their potencies were close to JC099; cell killing potency relative to JC099 [2]: moderate potency of cell killing, whereas less than JC099

**Q.** How did the “ATR inhibition potency relative to JC099” value [1] turn out when `CCN(CC)CCOc1ccc(C(=O)NC2C/C(=C\c3ccc(F)c(F)c3)C(=O)/C(=C/c3ccc(F)c(F)c3)C2)cc1OC` (stereo not drawn) [JCS111, N-(3,5-Bis((E)-3,4-difluorobenzylidene)-4-oxocyclohexyl)-4-(2-(diethylamino)ethoxy)-3-methoxy-benzamide] was run?
**A.** The value was “their potencies were close to JC099”.

**Q.** What about the “cell killing potency relative to JC099” value [2] of the same molecule?
**A.** The value was “moderate potency of cell killing, whereas less than JC099”.

**Q.** Which “cell killing potency relative to JC099” value [2] does the source give for `CCCN(CCC)CCOc1ccc(C(=O)NC2C/C(=C\c3ccc(F)c(F)c3)C(=O)/C(=C/c3ccc(F)c(F)c3)C2)cc1` (stereo not drawn) [JCSO11] here?
**A.** Its value is “higher cell killing potency than JC099”.

**Q.** What does the source list for `CCN1CCC[C@H]1CNc1ccc(C(=O)NC2C/C(=C\c3cc(F)c(F)c(F)c3)C(=O)/C(=C/c3cc(F)c(F)c(F)c3)C2)cc1` (stereo partly drawn) [JCS142, 4-((((S)-1-Ethylpyrrolidin-2-yl)methyl)amino)-N-(4-oxo-3,5-bis((E)-3,4,5-trifluorobenzylidene)-cyclohexyl)benzamide]?
**A.** ATR inhibition potency relative to JC099 (OLA- or UV-induced phosphorylation of Rad17 and CHK1) [1]: greater ATR inhibition potential; cell killing potency relative to JC099 [2]: higher cell killing potency than JC099

**Q.** Which results are given for `COCCN(CCOc1ccc(C(=O)NC2C/C(=C\c3ccc(F)c(F)c3)C(=O)/C(=C/c3ccc(F)c(F)c3)C2)cc1)CC1CCCO1` (stereo not drawn) [JCS110, N-(3,5-Bis((E)-3,4-difluorobenzylidene)-4-oxocyclohexyl)-4-(2-((2-methoxyethyl)((tetrahydrofuran-2-yl)methyl)amino)ethoxy)benzamide]?
**A.** ATR inhibition potency relative to JC099 (OLA- or UV-induced phosphorylation of Rad17 and CHK1) [1]: greater ATR inhibition potential; cell killing potency relative to JC099 [2]: moderate potency of cell killing, whereas less than JC099

**Q.** Which “ATR inhibition potency relative to JC099” value [1] does the source give for `O=C1/C(=C/c2ccc(F)c(F)c2)CC(NC(=O)c2ccc(OCCN3CCC(N4CCCC4)CC3)cc2)C/C1=C\c1ccc(F)c(F)c1` (stereo not drawn) [JCS080, N-(3,5-bis((E)-3,4-difluorobenzylidene)-4-oxocyclohexyl)-4-(2-(4-(pyrrolidin-1-yl)piperidin-1-yl)ethoxy)benzamide] here?
**A.** Its value is “greater ATR inhibition potential”.

**Q.** And the “cell killing potency relative to JC099” value [2]?
**A.** Its value is “higher cell killing potency than JC099”.

**Q.** Which “cell killing potency relative to JC099” value [2] does the source give for `N#Cc1cc(NCCN2CCCC2)ccc1C(=O)NC1C/C(=C\c2ccc(F)c(F)c2)C(=O)/C(=C/c2ccc(F)c(F)c2)C1` (stereo not drawn) [JCS091, N-(3,5-Bis((E)-3,4-difluorobenzylidene)-4-oxocyclohexyl)-2-cyano-4-((2-(pyrrolidin-1-yl)ethyl)ami-no)benzamide] here?
**A.** The value was “higher cell killing potency than JC099”.

**Q.** And the “PARP1-trapping potency relative to JC099 (PARP1 in the chromatin-bound fraction)” value [3]?
**A.** The value was “higher potency in PARP1-trapping”.

**Q.** With `CCN(CC)CCOc1ccc(C(=O)NC2C/C(=C\c3cc(F)c(F)c(OC)c3)C(=O)/C(=C/c3cc(F)c(F)c(OC)c3)C2)cc1` (stereo not drawn) [JCS152, N-(3,5-Bis((E)-3,4-difluoro-5-methoxybenzylidene)-4-oxocyclohexyl)-4-(2-(diethylamino)-ethoxy)benzamide] as the molecule, how does the “ATR inhibition potency relative to JC099” value [1] read?
**A.** Its value is “greater ATR inhibition potential”.

**Q.** And the “cell killing potency relative to JC099” value [2]?
**A.** Its value is “higher cell killing potency than JC099”.

**Q.** How did the “ATR inhibition potency relative to JC099” value [1] turn out when `COCCN(CCOC)CCOc1ccc(C(=O)NC2C/C(=C\c3cc(F)c(F)c(F)c3)C(=O)/C(=C/c3cc(F)c(F)c(F)c3)C2)cc1` (stereo not drawn) [JCS143, 4-(2-(Bis(2-methoxyethyl)amino)ethoxy)-N-(4-oxo-3,5-bis((E)-3,4,5-trifluorobenzylidene)cyclo-hexyl)benzamide] was run?
**A.** Its value is “less ATR inhibition potencies”.

**Q.** What about the “cell killing potency relative to JC099” value [2] of the same molecule?
**A.** The value was “moderate potency of cell killing, whereas less than JC099”.

**Q.** Which results are given for `O=C1/C(=C/c2ccc(F)c(F)c2)CC(NC(=O)c2ccc3c(ccn3CCN3CCCC3)c2)C/C1=C\c1ccc(F)c(F)c1` (stereo not drawn) [JCS075, N-(3,5-bis((E)-3,4-difluorobenzylidene)-4-oxocyclohexyl)-1-(2-(pyrrolidin-1-yl)ethyl)-1H-indole-5-carboxamide]?
**A.** Olaparib induced phosphorylation of Rad17 at Ser 645 and CHK1 at Ser 345 [1]: decreased the phosphorylation of Rad17 and CHK1; PARP1-trapping potency relative to JC099 (PARP1 in the chromatin-bound fraction) [3]: increased the accumulation of PARP1 in the chromatin-bound fraction than JC099

**Q.** What does the source list for `CN(C)CCCN(CCCN(C)C)C(=O)Nc1ccc(C(=O)NC2C/C(=C\c3ccc(F)c(F)c3)C(=O)/C(=C/c3ccc(F)c(F)c3)C2)cc1` (stereo not drawn) [JCS058, N-(3,5-bis((E)-3,4-difluorobenzylidene)-4-oxocyclohexyl)-4-(3,3-bis(3-(dimethylamino)propyl)ureido)benzamide]?
**A.** Olaparib induced phosphorylation of Rad17 at Ser 645 and CHK1 at Ser 345 [1]: inhibited; PARP1 trapped on DNA lesions [3]: trapped
